3 compounds from ChEMBL document CHEMBL5465560, “Selectivity Literature for EUbOPEN Chemogenomic Library” (2024) can be followed below.

Assay [1] has as its target T1, Inhibitor of nuclear factor kappa-B kinase subunit beta (Homo sapiens) (UniProt O14920).
T1 sequence (whole entry): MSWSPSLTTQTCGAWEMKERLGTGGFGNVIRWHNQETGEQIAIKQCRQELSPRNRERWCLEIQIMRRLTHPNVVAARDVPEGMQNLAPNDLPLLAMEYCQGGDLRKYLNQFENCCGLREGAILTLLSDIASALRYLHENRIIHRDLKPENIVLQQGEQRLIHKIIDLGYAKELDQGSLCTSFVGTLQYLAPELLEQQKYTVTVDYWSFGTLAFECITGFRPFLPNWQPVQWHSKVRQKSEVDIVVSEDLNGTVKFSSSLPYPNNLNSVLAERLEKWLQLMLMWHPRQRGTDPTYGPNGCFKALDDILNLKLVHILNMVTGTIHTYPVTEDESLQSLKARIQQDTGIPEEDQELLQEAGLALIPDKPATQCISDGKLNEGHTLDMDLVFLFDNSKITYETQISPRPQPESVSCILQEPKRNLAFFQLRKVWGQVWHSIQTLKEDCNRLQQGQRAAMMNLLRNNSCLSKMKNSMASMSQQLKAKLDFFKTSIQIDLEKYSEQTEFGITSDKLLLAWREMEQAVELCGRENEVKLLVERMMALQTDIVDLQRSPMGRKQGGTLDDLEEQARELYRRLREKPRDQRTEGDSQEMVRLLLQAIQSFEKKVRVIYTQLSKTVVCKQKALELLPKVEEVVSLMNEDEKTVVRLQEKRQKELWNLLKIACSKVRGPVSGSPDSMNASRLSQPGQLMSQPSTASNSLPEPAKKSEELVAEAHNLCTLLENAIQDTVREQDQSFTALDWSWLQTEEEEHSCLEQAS
Kind of assay: Selectivity interaction (ActivX KiNativ screen (ex vivo kinase selectivity in human PBMCs)) EUB0001619a IKBKB. Type of assay: cell-based. The conditions noted are these: PBMC, at 1 µM.

Assay [2] deals with T2, Cyclin-dependent kinase 11A (Homo sapiens) (UniProt Q9UQ88).
T2 sequence (whole entry): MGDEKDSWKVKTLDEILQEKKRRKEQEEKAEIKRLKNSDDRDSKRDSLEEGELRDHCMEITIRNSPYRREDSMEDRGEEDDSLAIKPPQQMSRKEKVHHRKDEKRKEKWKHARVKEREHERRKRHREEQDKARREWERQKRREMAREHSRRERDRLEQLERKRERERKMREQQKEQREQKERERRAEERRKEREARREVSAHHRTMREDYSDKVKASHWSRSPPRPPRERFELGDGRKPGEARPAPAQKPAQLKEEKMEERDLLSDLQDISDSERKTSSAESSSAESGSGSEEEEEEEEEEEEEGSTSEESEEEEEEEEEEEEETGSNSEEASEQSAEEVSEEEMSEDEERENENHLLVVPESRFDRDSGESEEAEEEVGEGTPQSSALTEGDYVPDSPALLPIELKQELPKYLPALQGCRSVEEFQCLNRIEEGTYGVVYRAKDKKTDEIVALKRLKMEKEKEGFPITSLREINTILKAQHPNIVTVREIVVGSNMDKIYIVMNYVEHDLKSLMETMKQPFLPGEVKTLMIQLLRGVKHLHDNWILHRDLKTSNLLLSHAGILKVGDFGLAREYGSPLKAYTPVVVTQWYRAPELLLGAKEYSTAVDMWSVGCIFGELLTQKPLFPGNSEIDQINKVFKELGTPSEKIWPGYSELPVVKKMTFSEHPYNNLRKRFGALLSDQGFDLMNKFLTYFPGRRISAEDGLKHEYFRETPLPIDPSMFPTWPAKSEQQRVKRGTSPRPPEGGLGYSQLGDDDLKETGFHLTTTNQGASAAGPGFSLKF
The experiment in a line: Selectivity interaction (ActivX KiNativ screen (kinase selectivity in THP-1 cell lysates)) EUB0000639a CDK11A. The format is subcellular. The conditions noted are these: lysate.

The target of assay [3] is T3, Myosin-IIIb (Homo sapiens) (UniProt Q8WXR4).
T3 sequence (whole entry): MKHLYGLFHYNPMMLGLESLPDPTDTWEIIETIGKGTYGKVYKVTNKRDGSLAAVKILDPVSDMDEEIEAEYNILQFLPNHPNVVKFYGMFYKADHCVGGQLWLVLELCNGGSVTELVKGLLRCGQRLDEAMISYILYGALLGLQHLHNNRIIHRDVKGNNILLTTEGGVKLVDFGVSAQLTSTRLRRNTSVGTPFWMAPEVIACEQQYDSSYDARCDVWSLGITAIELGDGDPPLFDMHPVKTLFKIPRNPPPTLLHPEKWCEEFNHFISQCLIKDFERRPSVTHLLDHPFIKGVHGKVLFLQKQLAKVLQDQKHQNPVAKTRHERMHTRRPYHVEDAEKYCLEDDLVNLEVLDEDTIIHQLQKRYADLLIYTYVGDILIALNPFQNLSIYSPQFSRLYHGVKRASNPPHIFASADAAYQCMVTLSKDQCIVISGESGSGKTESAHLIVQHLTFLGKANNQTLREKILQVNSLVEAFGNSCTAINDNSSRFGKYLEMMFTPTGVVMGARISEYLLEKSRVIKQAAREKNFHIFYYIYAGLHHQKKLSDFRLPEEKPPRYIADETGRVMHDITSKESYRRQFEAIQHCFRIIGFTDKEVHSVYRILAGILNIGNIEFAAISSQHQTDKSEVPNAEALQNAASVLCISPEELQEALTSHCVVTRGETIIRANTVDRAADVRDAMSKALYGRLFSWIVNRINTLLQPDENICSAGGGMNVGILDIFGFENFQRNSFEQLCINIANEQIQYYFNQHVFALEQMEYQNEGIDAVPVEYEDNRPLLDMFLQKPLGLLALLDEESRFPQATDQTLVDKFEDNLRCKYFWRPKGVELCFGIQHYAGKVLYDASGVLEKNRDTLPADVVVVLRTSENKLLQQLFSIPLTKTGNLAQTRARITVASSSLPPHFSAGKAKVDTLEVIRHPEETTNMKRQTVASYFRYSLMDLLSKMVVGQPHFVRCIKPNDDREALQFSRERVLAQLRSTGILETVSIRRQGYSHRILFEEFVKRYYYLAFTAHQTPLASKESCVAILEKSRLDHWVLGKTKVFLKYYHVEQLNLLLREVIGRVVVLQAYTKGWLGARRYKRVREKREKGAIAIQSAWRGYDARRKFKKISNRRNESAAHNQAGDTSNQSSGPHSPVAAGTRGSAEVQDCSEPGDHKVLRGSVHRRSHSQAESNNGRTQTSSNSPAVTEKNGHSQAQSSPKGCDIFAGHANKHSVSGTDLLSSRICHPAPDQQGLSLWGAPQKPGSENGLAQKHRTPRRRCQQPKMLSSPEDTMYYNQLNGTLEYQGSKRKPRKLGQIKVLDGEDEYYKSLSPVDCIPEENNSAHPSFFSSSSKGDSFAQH
Kind of assay: Selectivity interaction (KinomeScan (DiscoverX)) EUB0000229b MYO3B. Conditions: at 10 µM.

Regarding `N#Cc1cccc(-c2c[nH]c3ncnc(N4CCOCC4)c23)c1`, in assay [1], the % of inhibition is -16%.
Consider `CC[C@@H]1[C@H](F)C(=O)N[C@@H]1COc1nccc2cc(C(N)=O)c(OC)cc12` [ZIMLOVISERTIB], for which the % of inhibition was 10.4% in assay [2] (at 0.01 µM); -11.1% in assay [2] (at 0.04 µM); 2.6% in assay [2] (at 0.2 µM); 7.8% in assay [2] (at 1 µM); 18.7% in assay [2] (at 5 µM).
As to `COc1cc(N(C)c2ccnc3ccc(C(F)(F)F)cc23)cc(OC)c1OC`, the % binding in assay [3] was found to be 100%.
